From ChEMBL document CHEMBL1914323, “Tricyclic aminopyrimidine histamine H4 receptor antagonists” (Bioorg Med Chem Lett, 2011)
In brackets after ≈: the same amount, converted by molar mass. Activity calls are given as the source filed them. The rule behind the calls is not given here.

Tests used:
Histamine H4 receptor [1] = molecular target: T1, Histamine H4 receptor (Homo sapiens, UniProt Q9H3N8); assay: Displacement of [3H]histamine from recombinant human histamine H4 receptor
Histamine H4 receptor [2] = molecular target: T1, Histamine H4 receptor; assay: Antagonist activity at recombinant human histamine H4 receptor; format: functional; settings: read-out: pA2 (converted)
[3] = Solubility of the compound at pH 7; format: physicochemical; settings: buffer
[4] = Metabolic stability in human liver microsomes after 15 mins; format: ADME, Microsome; settings: read-out: Stability
[5] = Metabolic stability in rat liver microsomes after 15 mins; format: ADME, Microsome; settings: read-out: Stability
[6] = Metabolic stability in human liver microsomes assessed as half life; format: ADME, Microsome
[7] = Half life in dog at 10 mg/kg, po; format: ADME, organism-based, Canis lupus familiaris; set-up: dose 10 mg/kg, route oral; settings: in vivo
[8] = Solubility of the compound at pH 2; format: physicochemical; settings: buffer
[9] = Cmax in dog at 10 mg/kg, po; format: ADME, organism-based, Canis lupus familiaris; set-up: dose 10 mg/kg, route oral; settings: in vivo
[10] = AUC in dog at 2 mg/kg, iv; format: ADME, organism-based, Canis lupus familiaris; set-up: dose 2 mg/kg, route intravenous; settings: plasma
[11] = molecular target: T2, Voltage-gated inwardly rectifying potassium channel KCNH2 (Homo sapiens, UniProt Q12809); assay: Inhibition of human ERG by patch clamp technique
[12] = molecular target: T2, Voltage-gated inwardly rectifying potassium channel KCNH2; assay: Inhibition of human ERG by binding assay
[13] = Volume of distribution at steady state in dog at 2 mg/kg, iv; format: ADME, organism-based, Canis lupus familiaris; set-up: dose 2 mg/kg, route intravenous; settings: in vivo, read-out: Vdss
[14] = Clearance in rat at 2 mg/kg, iv; format: ADME, organism-based; set-up: dose 2 mg/kg, route intravenous; settings: in vivo
[15] = Volume of distribution at steady state in rat at 2 mg/kg, iv; format: ADME, organism-based; set-up: dose 2 mg/kg, route intravenous; settings: in vivo, read-out: Vdss
[16] = Half life in dog at 2 mg/kg, iv; format: ADME, organism-based, Canis lupus familiaris; set-up: dose 2 mg/kg, route intravenous; settings: in vivo
[17] = Clearance in dog at 2 mg/kg, iv; format: ADME, organism-based, Canis lupus familiaris; set-up: dose 2 mg/kg, route intravenous; settings: in vivo
[18] = Metabolic stability in rat liver microsomes assessed as half life; format: ADME, Microsome
[19] = Oral bioavailability in dog at 10 mg/kg; format: ADME, organism-based, Canis lupus familiaris; settings: in vivo
[20] = Apparent permeability from basolateral to apical side of human Caco2 cells; format: ADME, cell-based; settings: Caco-2
[21] = Half life in rat at 10 mg/kg, po; format: ADME, organism-based; set-up: dose 10 mg/kg, route oral; settings: in vivo
[22] = Apparent permeability from apical to basolateral side of human Caco2 cells; format: ADME, cell-based; settings: Caco-2
Mus musculus = assay: Antiinflammatory activity in BALB/c mouse asthma model assessed as inhibition of ovalbumin-induced eosinophil accumulation in lung lavage at 10 mg/kg, po BID 20 mins prior to each ovalbumin challenge for 4 times measured after 24 hrs by coulter counter assay; format: functional, organism-based; set-up: dose 10 mg/kg
[23] = AUC in rat at 2 mg/kg, iv; format: ADME, organism-based; set-up: dose 2 mg/kg, route intravenous; settings: plasma
[24] = Half life in rat at 2 mg/kg, iv; format: ADME, organism-based; set-up: dose 2 mg/kg, route intravenous; settings: in vivo
[25] = Fraction unbound in human plasma; format: ADME, cell-free
[26] = Fraction unbound in mouse plasma; format: ADME, cell-free
[27] = Metabolic stability in dog liver microsomes assessed as half life; format: ADME, Canis lupus familiaris, Microsome
[28] = Oral bioavailability in rat at 10 mg/kg; format: ADME, organism-based; settings: in vivo
[29] = Cmax in rat at 10 mg/kg, po; format: ADME, organism-based; set-up: dose 10 mg/kg, route oral; settings: in vivo

T1 sequence (Q9H3N8 whole entry): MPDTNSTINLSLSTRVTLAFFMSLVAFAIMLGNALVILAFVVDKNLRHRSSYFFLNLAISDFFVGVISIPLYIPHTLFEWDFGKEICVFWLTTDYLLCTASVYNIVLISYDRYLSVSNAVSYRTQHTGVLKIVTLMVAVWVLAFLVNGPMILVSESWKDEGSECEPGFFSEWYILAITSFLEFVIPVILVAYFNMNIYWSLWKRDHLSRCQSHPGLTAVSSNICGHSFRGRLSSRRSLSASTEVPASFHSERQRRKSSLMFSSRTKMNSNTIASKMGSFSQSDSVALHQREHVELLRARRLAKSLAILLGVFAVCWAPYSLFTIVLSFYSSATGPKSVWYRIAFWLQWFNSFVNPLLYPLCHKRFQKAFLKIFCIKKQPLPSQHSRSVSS
T2 sequence (Q12809 whole entry): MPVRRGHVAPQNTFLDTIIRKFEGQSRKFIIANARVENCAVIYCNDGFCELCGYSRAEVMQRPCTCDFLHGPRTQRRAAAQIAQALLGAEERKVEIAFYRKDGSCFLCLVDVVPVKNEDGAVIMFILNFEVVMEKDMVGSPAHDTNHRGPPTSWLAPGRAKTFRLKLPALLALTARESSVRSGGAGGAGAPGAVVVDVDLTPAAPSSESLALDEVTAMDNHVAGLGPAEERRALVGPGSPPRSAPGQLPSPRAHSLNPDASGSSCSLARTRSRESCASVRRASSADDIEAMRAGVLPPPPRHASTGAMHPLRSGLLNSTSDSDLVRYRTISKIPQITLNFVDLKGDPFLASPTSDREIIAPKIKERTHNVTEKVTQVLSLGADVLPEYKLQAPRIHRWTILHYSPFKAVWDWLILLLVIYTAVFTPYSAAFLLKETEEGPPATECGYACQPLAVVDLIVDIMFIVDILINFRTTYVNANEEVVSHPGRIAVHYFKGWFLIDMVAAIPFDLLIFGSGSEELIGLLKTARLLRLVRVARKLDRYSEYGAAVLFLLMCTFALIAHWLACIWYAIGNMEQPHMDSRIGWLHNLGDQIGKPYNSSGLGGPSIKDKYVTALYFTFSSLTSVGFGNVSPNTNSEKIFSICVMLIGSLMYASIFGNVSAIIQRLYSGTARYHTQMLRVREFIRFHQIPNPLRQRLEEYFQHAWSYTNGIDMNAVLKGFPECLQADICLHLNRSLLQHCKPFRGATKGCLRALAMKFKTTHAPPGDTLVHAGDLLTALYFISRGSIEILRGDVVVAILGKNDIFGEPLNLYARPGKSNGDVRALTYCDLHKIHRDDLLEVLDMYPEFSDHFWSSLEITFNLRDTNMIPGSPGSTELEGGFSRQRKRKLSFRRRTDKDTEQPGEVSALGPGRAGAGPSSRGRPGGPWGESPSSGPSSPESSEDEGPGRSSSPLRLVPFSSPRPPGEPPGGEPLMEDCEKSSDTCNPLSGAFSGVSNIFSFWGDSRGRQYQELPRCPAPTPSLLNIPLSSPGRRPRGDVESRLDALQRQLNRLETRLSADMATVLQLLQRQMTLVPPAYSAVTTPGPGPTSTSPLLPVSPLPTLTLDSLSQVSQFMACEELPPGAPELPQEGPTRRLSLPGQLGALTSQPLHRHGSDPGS

Compound: CN[C@H]1CCN(c2nc(N)nc3c2sc2ccc(Br)cc23)C1
- Ki (Histamine H4 receptor [1]): 65 nM

Compound: Nc1nc(N2C[C@H]3C[C@@H]2CN3)c2oc3ccc(Cl)cc3c2n1
- Ki (Histamine H4 receptor [1]): 104 nM

Compound: CN1CCN(c2nc(N)nc3c2sc2cc(Cl)ccc23)CC1
- Ki (Histamine H4 receptor [1]): 18 nM

Compound: CN1CCN(c2nc(N)nc3c2oc2ccc(F)c(F)c23)CC1
- Ki (Histamine H4 receptor [1]): 156 nM

Compound: CN[C@H]1CCN(c2nc(N)nc3c2sc2ccc(Cl)cc23)C1
- Ki (Histamine H4 receptor [1]): 76 nM

Compound: CN[C@@H]1CCN(c2nc(N)nc3c2oc2c(Cl)cc(Cl)cc23)C1
- Ki (Histamine H4 receptor [1]): 8 nM

Compound: Nc1nc(N2C[C@@H]3C[C@H]2CN3)c2oc3ccccc3c2n1
- Ki (Histamine H4 receptor [1]): 196 nM

Compound: NC[C@H]1CCN(c2nc(N)nc3c2oc2ccc(Cl)cc23)C1
- Ki (Histamine H4 receptor [1]): 137 nM

Compound: CN(C)C1CCN(c2ncnc3c2sc2ccccc23)CC1
- Ki (Histamine H4 receptor [1]): > 10000 nM

Compound: CN1CCCN(c2nc(N)nc3c2oc2ncc(Cl)cc23)CC1
- Ki (Histamine H4 receptor [1]): 37 nM

Compound: Nc1nc(N2CCC[C@H](N)C2)c2oc3ccc(Cl)cc3c2n1
- Ki (Histamine H4 receptor [1]): 5.7 nM

Compound: Nc1nc(N2CCNCC2)c2oc3ncc(Cl)cc3c2n1
- Ki (Histamine H4 receptor [1]): 35 nM

Compound: CN[C@@H]1CCN(c2nc(N)nc3c2oc2ccc(F)cc23)C1
- Ki (Histamine H4 receptor [1]): 2 nM

Compound: CN1CCN(c2nc(N)nc3c4cc(Cl)ccc4[s+]([O-])c23)CC1 (stereo not drawn)
- Ki (Histamine H4 receptor [1]): 1280 nM

Compound: CNC1CCN(c2nc(N)nc3c2oc2ccc(Cl)cc23)C1 (stereo not drawn)
- Kb (Histamine H4 receptor [2]): 10 nM
- solubility [3]: 0.054 µM (≈ 0.0172 µg/mL)
- remaining at […] [4]: 100%
- remaining at […] [5]: 100%
- Ki (Histamine H4 receptor [1]): 0.9 nM

Compound: CN[C@@H]1CCN(c2nc(N)nc3c2sc2ccc(Cl)cc23)C1
- Ki (Histamine H4 receptor [1]): 10 nM

Compound: CN(C)C1CCN(c2ncnc3c2sc2ccccc23)C1 (stereo not drawn)
- Ki (Histamine H4 receptor [1]): > 10000 nM

Compound: Nc1nc(N2CCNCC2)c2oc3ccc(Cl)c(Cl)c3c2n1
- Ki (Histamine H4 receptor [1]): 7.7 nM

Compound: Cc1csc2c(N3CCCN(C)CC3)ncnc12
- Ki (Histamine H4 receptor [1]): > 10000 nM

Compound: CN1CCN(c2ncnc3c2oc2ccccc23)CC1
- half-life [6]: < 0.0833 h
- Ki (Histamine H4 receptor [1]): 56 nM

Compound: Nc1nc(N2CCC[C@H](N)C2)c2oc3ccc(C(F)(F)F)cc3c2n1
- Ki (Histamine H4 receptor [1]): 42 nM

Compound: Nc1nc(N2CCNCC2)c2oc3cccc(F)c3c2n1
- Ki (Histamine H4 receptor [1]): 145 nM

Compound: Nc1nc(N2CC(N)C2)c2oc3ncc(Cl)cc3c2n1
- Ki (Histamine H4 receptor [1]): 613 nM

Compound: CN1CCN(CCCOc2ccc(-c3nc4cc(Cl)ccc4[nH]3)cc2)CC1
- Ki (Histamine H4 receptor [1]): 120 nM

Compound: Nc1nc(N2C[C@@H]3C[C@H]2CN3)c2oc3cccc(Cl)c3c2n1
- Ki (Histamine H4 receptor [1]): 443 nM

Compound: CN[C@@H]1CCN(c2nc(N)nc3c2oc2ccc(Br)cc23)C1
- Ki (Histamine H4 receptor [1]): 0.7 nM

Compound: Nc1nc(N2CCNCC2)c2oc3ccc(F)c(F)c3c2n1
- Ki (Histamine H4 receptor [1]): 156 nM

Compound: CN1CCN(c2nc(N)nc3c2oc2ccc(Cl)c(Cl)c23)CC1
- Ki (Histamine H4 receptor [1]): 7.7 nM

Compound: CN[C@H]1CCN(c2nc(N)nc3c2oc2ccc(Cl)cc23)C1
- Ki (Histamine H4 receptor [1]): 2 nM

Compound: Nc1nc(N2CC3CCNC3C2)c2oc3ncc(Cl)cc3c2n1 (stereo not drawn)
- Ki (Histamine H4 receptor [1]): 139 nM

Compound: CN[C@@H]1CCN(c2nc(N)nc3c2oc2ncc(Cl)cc23)C1
- half-life [7]: 10.5 h
- solubility [8]: > 0.4 µM
- Cmax [9]: 1800 nM
- AUC [10]: 5.2 µM·h
- INH [11]: > 3 µM
- half-life [6]: > 3 h
- Kb (Histamine H4 receptor [2]): 5.01 nM
- solubility [3]: > 0.4 µM
- IC50 [12]: > 10000 nM
- Vd [13]: 16.5 L/kg
- clearance [14]: 68.3 mL/min/kg
- Vd [15]: 6.9 L/kg
- half-life [16]: 9.7 h
- clearance [17]: 21.7 mL/min/kg
- half-life [18]: > 1.02 h
- bioavailability [19]: 91%
- Papp B→A [20]: 22 ×10⁻⁶ cm/s
- half-life [21]: 6.8 h
- Papp A→B [22]: 23 ×10⁻⁶ cm/s
- inhibition (Mus musculus): Active
- AUC [23]: 1.6 µM·h
- half-life [24]: 1.2 h
- fraction unbound [25]: 0.43
- fraction unbound [26]: 0.18
- half-life [27]: > 3 h
- Ki (Histamine H4 receptor [1]): 9.4 nM
- bioavailability [28]: 91%
- Cmax [29]: 1200 nM

Compound: Nc1nc(N2C[C@H]3CCCN[C@H]3C2)c2oc3ccc(Cl)cc3c2n1
- Ki (Histamine H4 receptor [1]): 4.7 nM

Compound: Nc1nc(N2CCNCC2)c2oc3cccc(Cl)c3c2n1
- Ki (Histamine H4 receptor [1]): 1050 nM

Compound: Nc1nc(N2CC[C@@H](NCCO)C2)c2oc3ccc(Cl)cc3c2n1
- Ki (Histamine H4 receptor [1]): 46 nM

Compound: Nc1nc(N2CC[C@@H](N)C2)c2oc3ncc(Cl)cc3c2n1
- Ki (Histamine H4 receptor [1]): 16 nM

Compound: CN[C@@H]1CCN(c2nc(N)nc3c2oc2ccc(OC)cc23)C1
- Ki (Histamine H4 receptor [1]): 11 nM

Compound: CN[C@@H]1CCN(c2nc(N)nc3c2oc2cccc(Cl)c23)C1
- Ki (Histamine H4 receptor [1]): 40 nM

Compound: CN[C@@H]1CCN(c2nc(N)nc3c2sc2cc(C(F)(F)F)ccc23)C1
- Ki (Histamine H4 receptor [1]): 125 nM

Compound: Cc1csc2c(N3CCN(C)CC3)ncnc12
- Ki (Histamine H4 receptor [1]): > 205 nM

Compound: CN1CCN(c2nc(N)nc3c2sc2ccc(Cl)cc23)CC1
- Ki (Histamine H4 receptor [1]): 0.3 nM

Compound: CN1CCN(c2ncnc3c2sc2ccccc23)CC1
- Ki (Histamine H4 receptor [1]): 53 nM

Compound: NCC1CN(c2nc(N)nc3c2oc2ncc(Cl)cc23)C1
- Ki (Histamine H4 receptor [1]): 376 nM

Compound: CN1CCN(c2ncnc3c2oc2ccc(Cl)cc23)CC1
- half-life [6]: < 0.0833 h
- Kb (Histamine H4 receptor [2]): 2.51 nM
- solubility [3]: 0.053 µM (≈ 0.016 µg/mL)
- half-life [18]: < 0.0833 h
- Ki (Histamine H4 receptor [1]): 4.7 nM

Compound: CN1CCN(c2nc(N)nc3c2oc2ncc(Cl)cc23)CC1
- Ki (Histamine H4 receptor [1]): 33 nM

Compound: CN1CCN(c2nc(N)nc3c2oc2ccc(Cl)cc23)CC1
- Kb (Histamine H4 receptor [2]): 2 nM
- remaining at […] [4]: 84%
- remaining at […] [5]: 0.3%
- Ki (Histamine H4 receptor [1]): 0.1 nM

Compound: CNC1CCN(c2ncnc3c2sc2ccccc23)CC1
- Ki (Histamine H4 receptor [1]): > 10000 nM

Compound: Nc1nc(N2C[C@@H]3C[C@H]2CN3)c2oc3ccc(Cl)cc3c2n1
- Ki (Histamine H4 receptor [1]): 26 nM

Compound: Nc1nc(N2C[C@@H]3C[C@H]2CN3)c2oc3ncc(Cl)cc3c2n1
- Ki (Histamine H4 receptor [1]): > 10000 nM

Compound: Nc1nc(N2CCNCC2)c2oc3c(Cl)cc(Cl)cc3c2n1
- Ki (Histamine H4 receptor [1]): 138 nM

Compound: Nc1nc(N2CCC[C@@H](N)C2)c2oc3ccc(Cl)cc3c2n1
- Ki (Histamine H4 receptor [1]): 9.1 nM

Compound: Nc1nc(N2C[C@@H]3CCCN[C@@H]3C2)c2oc3ccc(Cl)cc3c2n1
- Ki (Histamine H4 receptor [1]): 21 nM

Compound: CN[C@@H]1CCN(c2nc(N)nc3c2sc2ccc(F)cc23)C1
- Ki (Histamine H4 receptor [1]): 31 nM

Compound: C[C@H]1CN(c2nc(N)nc3c2oc2ncc(Cl)cc23)CCN1
- Ki (Histamine H4 receptor [1]): 885 nM

Compound: CN[C@@H]1CCN(c2nc(N)nc3c2oc2ccc(Cl)cc23)C1
- Ki (Histamine H4 receptor [1]): 0.4 nM
